One test has as its target T1, cardiac adenylyl cyclase (Canis lupus familiaris, UniProt P30803).
T1 construct: The expression vector containing the full length cDNA is designated pcDNA113-72; expressed in transfected cells; host or cells: monkey kidney CMT cells (COS derivative), transient transfection with pcDNA113-72, crude membrane preparation
Kind of test: Adenylyl cyclase activity assay (method of Salomon), crude membranes of CMT cells transfected with pcDNA113-72. The test is classed as biochemical, canine. Particulars: for fold more stimulation than the control: transfected vs untransfected control, 100 µM forskolin. The source says: Biochemical characterization of the protein product encoded by this cDNA is obtained using a CMT cell-expression system. The CMT cell is a derivative of the COS cell in which expression of the T-antigen is under the control of a metallothionein promoter. Thus the accumulation of T-antigen in the cell is further enhanced by the addition of heavy metal ion in the medium. The adenylyl cyclase cDNA construct (113-72) is cloned into pcDNA 1, a CMV promoter-driven expression vector with an SV40 enhancer-origin of replication element. A crude membrane preparation is prepared from the transfected CMT cells and a variety of agents known to stimulate adenylyl cyclase are examined (Table I). There is a dose-dependent relationship between the amount of plasmid transfected and the resultant adenylyl cyclase activity, both basal and forskolin-stimulated (0-30 µg per transfection). When the plasmid without insert is transfected, the resultant adenylyl cyclase activity is slightly (∼15%) lower than that of mock-transfected cells. All activities are enhanced several-fold in the transfected cells, as compared to controls, with the forskolin-stimulated activity showing the greatest increase in activity (>6-fold increase over control).
In an example of such expression, twenty µg of the purified plasmid pcDNA 113-72 are transfected into the monkey kidney CMT cells using a modified method of Golub et al. (17). Briefly, the cells are grown to 80% confluence in Dulbecco's modification of Eagle's Medium, 10% fetal calf serum, 2 mM glutamine, 4.5 mg/ml glucose, 10 µg/ml streptomycin sulfate and 60 µg/ml penicillin K. After washing with PBS twice, 0.5 ml of trypsin solution is added. The cells are incubated for 10 minutes, and 20 µg of purified plasmid resuspended in 4 ml of DMEM containing 400 µg/ml DEAE dextran and 0.1 mM chloroquine is added. The cells are incubated for four hours followed by 10% DMSO shock for two minutes. After washing with PBS twice, the induction media, which contains 10% fetal calf serum (FCS), 2 mM glutamine, […], 2 mM penicillin and streptomycin, and 1 µM CdCl₂, 0.1 µM ZnCl₂ in DMEM, is added. The plate is incubated at 37 °C for 72 hours before harvesting.
The biochemical property of this cardiac adenylyl cyclase is examined in a transient expression system using CMT cells (a derivative of COS cells). CMT cells contain T-antigen driven by a methalothionein promoter in the genome. Thus by induction with heavy metal ion in the medium, CMT cells could produce more T-antigen than COS cells. A 4.3 kb fragment of the adenylyl cyclase cDNA (#113-72) containing the whole coding sequence is inserted into the pcDNA1 plasmid described above (Invitrogen).
The adenylyl cyclase activity of a cell transfected with the expression vector pcDNA1 carrying cardiac adenylyl cyclase cDNA is assayed as follows. The transfected CMT cells are washed twice with PBS and scraped in three ml of cold buffer containing 50 mM Tris (pH8.0), 1 mM EDTA, 10 µM PMSF (phenylmethylsulfonylfluoride), 100 U leupeptin, and 50 U egg white trypsin inhibitor (ETI) on ice. The membrane is homogenated in Polytron™ (setting 6 for 10 seconds) and is centrifuged at 800 x g for 10 minutes at 4 °C. The supernatant is further centrifuged at […] for 40 minutes at 4 °C. The resultant pellet is resuspended in 50 mM Tris (pH 8.0), 1 mM EDTA, 1 µM PMSF, 50 U leupeptin, and 50 U ETI, to a concentration of 5 µg/µl. This crude membrane solution is used for the adenylyl cyclase asssay. […]

Test [1] concerns the target T2, type V adenylyl cyclase (Canis lupus familiaris, UniProt P30803).
T2 construct: expressed in transfected cells; host or cells: CMT cells, crude membrane preparation
Kind of test: P-site inhibition of adenylyl cyclase activity by adenosine and its analogues, transfected CMT membranes. The test is classed as biochemical, canine. Particulars: 0-100 µM; membranes preincubated with 5 mM Mn²⁺ and 100 µM forskolin for 10 minutes. As to the method: Figure 7 depicts the effect of adenosine and its analogues on type V adenylyl cyclase activity. Membrane (transfected with pcDNA112-72 or control) are preincubated with 5 mM Mn²⁺ and 100 µM forskolin for 10 minutes prior to the assay. […] Each point in the average of triplicate determinations.
Another feature of adenylyl cyclase is its inhibition through an allosteric purine binding or P-site (6). […] This is more apparent when the enzyme is first activated by the addition of Mn²⁺, forskolin. The order of potency was as follows: 2'-deoxy-3'-AMD>3'-AMP>2'-deoxyadenosine>adenosine (Figure 7).

For the next test, the system named is untransfected CMT cells. Kind of test: Adenylyl cyclase activity assay, membrane from untransfected CMT cells (control). The test is classed as biochemical, monkey. The following applies: Control (untransfected CMT cell membrane), ± standard error.
The target of test [2] is T2, type V adenylyl cyclase. Kind of test: Calcium/calmodulin sensitivity of adenylyl cyclase activity, transfected CMT cell membranes. The test is classed as biochemical, canine. Particulars: 30 µg crude CMT cell membrane; 0-1 mM calcium (CaCl₂); membranes washed with EGTA. As to the method:
Figure 6 depicts the effect of calcium on type V adenylyl cyclase activity. Adenylyl cyclase activity (CMT cells transfected with pcDNA113-72 or cardiac sarcolemma) is measured in the presence of increasig concentrations of calcium (0-1 mM). Cardiac sarcolemma is prepared as described (26). Both membrane preparations are first washed with EGTA prior to assay (27). Similar results are obtained in three independent experiments. The efficiency of transfection is confirmed by at least a 4-fold increase in both basal and forskolin-stimulated adenylyl cyclase activities over control.
The calcium/calmodulin sensitivity of this protein is also assessed. […] Thirty µg of the crude CMT cell membrane preparation are incubated in the presence of increasing concentrations of CaCl₂. […] The adenylyl cyclase activity also is assessed in canine cardiac sarcolemma.

The mark [3] stands for this setting: 10 mM sodium fluoride, 100 µM GTPγS.

T1 sequence (P30803 82-1265 limits assumed): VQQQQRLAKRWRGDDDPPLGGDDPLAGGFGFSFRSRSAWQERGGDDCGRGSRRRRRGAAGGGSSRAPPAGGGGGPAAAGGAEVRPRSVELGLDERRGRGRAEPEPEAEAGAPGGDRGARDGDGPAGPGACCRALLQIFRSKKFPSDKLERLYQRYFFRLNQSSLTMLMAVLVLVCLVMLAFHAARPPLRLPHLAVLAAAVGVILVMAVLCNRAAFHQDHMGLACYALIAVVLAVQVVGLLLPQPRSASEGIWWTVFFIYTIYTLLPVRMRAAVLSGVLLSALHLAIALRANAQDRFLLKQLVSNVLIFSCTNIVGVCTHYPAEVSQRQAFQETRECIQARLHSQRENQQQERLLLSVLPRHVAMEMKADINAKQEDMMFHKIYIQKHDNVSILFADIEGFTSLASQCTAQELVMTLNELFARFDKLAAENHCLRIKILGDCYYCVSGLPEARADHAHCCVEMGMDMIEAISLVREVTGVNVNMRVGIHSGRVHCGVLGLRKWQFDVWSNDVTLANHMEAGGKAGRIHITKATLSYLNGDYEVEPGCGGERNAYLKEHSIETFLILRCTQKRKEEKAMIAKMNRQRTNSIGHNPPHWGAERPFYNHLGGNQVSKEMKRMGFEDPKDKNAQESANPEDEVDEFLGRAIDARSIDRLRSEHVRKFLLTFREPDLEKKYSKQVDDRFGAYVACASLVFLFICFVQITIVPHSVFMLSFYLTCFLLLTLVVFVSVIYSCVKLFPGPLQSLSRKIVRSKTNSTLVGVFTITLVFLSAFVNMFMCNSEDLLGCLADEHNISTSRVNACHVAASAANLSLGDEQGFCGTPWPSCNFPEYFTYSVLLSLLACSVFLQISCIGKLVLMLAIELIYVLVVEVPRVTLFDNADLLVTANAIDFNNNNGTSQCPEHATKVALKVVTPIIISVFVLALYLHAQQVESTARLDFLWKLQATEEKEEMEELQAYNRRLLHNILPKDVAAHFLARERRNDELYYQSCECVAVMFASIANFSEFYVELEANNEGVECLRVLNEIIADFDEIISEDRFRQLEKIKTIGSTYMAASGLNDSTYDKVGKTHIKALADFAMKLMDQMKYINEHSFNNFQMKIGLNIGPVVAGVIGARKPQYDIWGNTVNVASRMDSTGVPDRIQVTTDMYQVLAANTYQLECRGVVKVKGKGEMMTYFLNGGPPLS
T2 sequence (P30803 82-1265 limits assumed): as above
Protocol for untransfected CMT cells: The adenylyl cyclase activity of a cell transfected with the expression vector pcDNA1 carrying cardiac adenylyl cyclase cDNA is assayed as follows. The transfected CMT cells are washed twice with PBS and scraped in three ml of cold buffer containing 50 mM Tris (pH8.0), 1 mM EDTA, 10 µM PMSF (phenylmethylsulfonylfluoride), 100 U leupeptin, and 50 U egg white trypsin inhibitor (ETI) on ice. The membrane is homogenated in Polytron™ (setting 6 for 10 seconds) and is centrifuged at 800 x g for 10 minutes at 4 °C. The supernatant is further centrifuged at 100 x g for 40 minutes at 4 °C. The resultant pellet is resuspended in 50 mM Tris (pH 8.0), 1 mM EDTA, 1 µM PMSF, 50 U leupeptin, and 50 U ETI, to a concentration of 5 µg/µl. This crude membrane solution is used for the adenylyl cyclase asssay.
The adenylyl cyclase assay is performed by the method of Salomon (21). Briefly, the crude membranes from CMT cells are resuspended in a solution containing 1 mM creatine phosphate, 8 µg/ml creatine phophokinase, 4 mM HEPES (pH 8.0), 2 mM MgCl₂, 0.1 mM c-AMP, 0.1 mM ATP, and ³²P-ATP (0.2-5 µCi/assay tube). […] Cyclic-AMP is separated from ATP by passing through Dowex and alumina columns, and the radioactivity is counted by scintillation counter. The protein concentration of the membranes used are measured by Bradford's method (22), with bovine serum albumin as a standard. […]

With manganese, the “adenylyl cyclase activity stimulated over the control” value at cardiac adenylyl cyclase (in the presence of 5 mM manganese) is given as “more than 10 fold”.
`Nc1ncnc2c1ncn2[C@H]1C[C@H](O)[C@@H](CO)O1` [2'-deoxyadenosine]: the “order of potency of inhibition of adenylyl cyclase activity” value on type V adenylyl cyclase [1] is given as 2'-deoxy-3'-AMD>3'-AMP>2'-deoxyadenosine>adenosine.
The same measure, in the same setting: with `Nc1ncnc2c1ncn2[C@H]1C[C@H](OP(=O)(O)O)[C@@H](CO)O1` [2'-deoxy-3'-AMD] the figure was 2'-deoxy-3'-AMD>3'-AMP>2'-deoxyadenosine>adenosine.
Take `[F-].[Na+]` [NaF, sodium fluoride]: the “adenylyl cyclase activity, NaF” value is 15±3.1 in the test on untransfected CMT cells (10 mM sodium fluoride) and 41±4.7 on cardiac adenylyl cyclase (Transfected CMT cell membranes, 10 mM sodium fluoride, ± standard error). For the same molecule, the “fold more stimulation than the control” value at cardiac adenylyl cyclase (setting [3]) is 2.7 fold.
As for `Nc1ncnc2c1ncn2[C@@H]1O[C@H](CO)[C@@H](O)[C@H]1O` [adenosine], the “order of potency of inhibition of adenylyl cyclase activity” value on type V adenylyl cyclase [1] was 2'-deoxy-3'-AMD>3'-AMP>2'-deoxyadenosine>adenosine.
On to CaCl₂ [calcium], for which the “effect of calcium on adenylyl cyclase activity” value on type V adenylyl cyclase [2] is “inhibited in a concentration-dependent manner”.
With `Nc1nc2c(ncn2[C@@H]2O[C@H](COP(=O)(O)OP(=O)(O)OP(O)(O)=S)[C@@H](O)[C@H]2O)c(=O)[nH]1` [GTPγS], the “adenylyl cyclase activity, GTPγS” value worked out at 30± 4.5 in the test with untransfected CMT cells (100 µM GTPγS) and 84±12.5 on cardiac adenylyl cyclase (Transfected CMT cell membranes, 100 µM GTPγS, ± standard error). On cardiac adenylyl cyclase (setting [3]), the “fold more stimulation than the control” value came out at 2.8 fold.
With `Nc1ncnc2c1ncn2[C@@H]1O[C@H](CO)[C@@H](OP(=O)(O)O)[C@H]1O` [3'-AMP], on type V adenylyl cyclase [1], the “order of potency of inhibition of adenylyl cyclase activity” value is listed as 2'-deoxy-3'-AMD>3'-AMP>2'-deoxyadenosine>adenosine.

(Values after patent publication EP0529622A2, “Cloning and characterization of a cardiac adenylyl cyclase” (AMERICAN CYANAMID COMPANY, priority 1991, dated 1993).)
